Converted amounts (≈) assume the structure as drawn. Where two headings read alike, the source gives them in different places.
How the values were obtained:
[1] = test system: Escherichia coli ATCC 11 775; assay: Serial dilution test in the microtiter system (MIC), E. Coli ATCC 11775; assay type: cell-based
Experimental: (§1) These tests were performed according to the method of the serial dilution test in the microtiter system. The effect of the substances on bacteriostasis was examined in a fluid medium. […] A nutrient medium of the following composition was used. 10 gm of peptone, 8 gm of meat extract-oxoid, 3 gm of sodium chloride, 2 gm of sec. sodium phosphate were diluted with distilled water to […] (pH 7.2-7.4). Only in the test against streptococci 1% of glucose was added. The age of the primary cultures was about 20 hours. The standardization of the pathogen suspension was effected by using a photometer according to "Eppendorf" (test tube dismeter 14 mm, filter 546 nm) with the aid of the turbidity of a comparison suspension consisting of barium sulfate, this suspension being prepared by addition of 3.0 ml of 1% barium chloride solution to 97 ml of 1% sulfuric acid. After the standardization, streptococcus aronson were further diluted to a concentration of 1:15 and the other microorganisms to a concentration of 1:1500 by means of a sodium chloride solution.
(§2) 16 mg of the test substance were put into a 10 ml-measuring flask and filled up to the mark with the solvent. The further dilution series was standardized with distilled water or the respective solvent.
(§3) The cavities of the microtiter plates were filled with 0.2 ml of nutrient medium. Then, 0.01 ml of the corresponding test substance dilution was added and inoculated with 0.01 ml of the standardized suspension. The bacteria were incubated at 37° C. for 18-20 hours. Control tests merely using the solvent were carried out simultaneously.
(§4) The measurement was carried out macroscopically to determine the minimal inhibitory (threshold) concentration, i.e. the lower still bacteriostatically effective concentration.
(§5) Staphylococcus aureus SG 511, Escherichia coli ATCC 11 775, Pseudomonas aeruginosa Hamburgensis and Pseudomonas aeruginosa Walter, Serratia marcescens ATCC 13880, Klebsiella pneumoniae ATCC 10 031 and 272, Proteus mirabilis Hamburgensis, Proteus rettgeri, Enterbacter cloaceae ATCC 13 047 and E. Coli R+TEM (β-lactamase carrier).

[2] = test system: Pseudomonas aeruginosa Hamburgensis; assay: Serial dilution test in the microtiter system (MIC), Pseud. aerug. Hbg.; assay type: cell-based
Experimental: as §1, §2, §3, §4, §5

[3] = test system: Pseudomonas aeruginosa Walter; assay: Serial dilution test in the microtiter system (MIC), Pseud. aerug. Walter; assay type: cell-based
Experimental: as §1, §2, §3, §4, §5

[4] = test system: Serratia marcescens ATCC 13880; assay: Serial dilution test in the microtiter system (MIC), Serrat. marcesc. ATCC 13880; assay type: cell-based
Experimental: as §1, §2, §3, §4, §5

[5] = test system: Klebsiella pneumoniae ATCC 10 031; assay: Serial dilution test in the microtiter system (MIC), Klebs. pneum. ATCC 10031; assay type: cell-based
Experimental: as §1, §2, §3, §4, §5

[6] = test system: Klebsiella pneumoniae 272; assay: Serial dilution test in the microtiter system (MIC), Klebs. pneum. 272; assay type: cell-based
Experimental: as §1, §2, §3, §4, §5

[7] = test system: Proteus mirabilis Hamburgensis; assay: Serial dilution test in the microtiter system (MIC), Prot. mirabilis; assay type: cell-based
Experimental: as §1, §2, §3, §4, §5

Proteus rettgeri = assay: Serial dilution test in the microtiter system (MIC), Prot. rettgeri; assay type: cell-based; conditions: Providencia rettgeri; Table IV; Prot. rettg.; 37° C., 18-20 hours; read-out: MIC
Experimental: as §1, §2, §3, §4, §5

[8] = test system: Enterbacter cloaceae ATCC 13 047; assay: Serial dilution test in the microtiter system (MIC), Eb. cloaceae ATCC 13047; assay type: cell-based
Experimental: as §1, §2, §3, §4, §5

[9] = test system: Staphylococcus aureus SG 511; assay: Serial dilution test in the microtiter system (MIC), S. aureus SG 511; assay type: cell-based
Experimental: as §1, §2, §3, §4, §5

E. coli ATCC 11775 = assay: In vivo activity in mice, E. coli infection; parameters: species or system Female NMRI mice; conditions: Escherichia coli, ATCC11775, iPSC, sc, 168 h; E. coli infection i.p.; s.c. administration; per dose; observation 7 days; read-out: ED50 (dose at which 50% of the animals survived)
Experimental: (§6) A number of compounds of this invention were tested in vivo in mice against experimental infections. Bacteria E. coli ATCC 11775 and Psuedomonas aeruginosa Walter were used as pathogens. An intraperitoneal infection with 0.2 ml of a 5% suspension of the bacteria was induced. This corresponds to about 2×10^6 E. Coli germs and 8×10^5 pseudomonas germs/mouse. […] The groups with E. coli infection were treated with the test compound three times on the first day (1, 4, and 7 hours post infectionem) and for two days thereafter twice a day. The groups with the pseudomonas infection were treated with the test compound 6 times on the first day (1, 3, 6, 9, 12 and 15 hours post infectionem) and for two days thereafter twice a day. The observation time was in both cases 7 days. The results of these tests with representatives of the penicillins and cephalosporins according to the invention are shown in the following table: […]

[10] = test system: Psuedomonas aeruginosa Walter; assay: In vivo activity in mice, Pseudomonas infection; parameters: species or system Female NMRI mice; conditions: for ED50: Mus musculus, iPSC, sc, 168 h, Pseudomonas infection i.p., s.c. administration, per dose, observation 7 days, read-out: ED50 (dose at which 50% of the animals survived)
Experimental: as §6

[11] = Table IV, E. Coli ATCC 11775, 37° C., 18-20 hours, read-out: MIC
[12] = ATCC13880, Table IV, Serr. marcesc. ATCC 13880, 37° C., 18-20 hours, read-out: MIC
[13] = Table IV, Klebs. pneum. ATCC 10031, 37° C., 18-20 hours, read-out: MIC
[14] = Table IV, Klebs. pneum. 272, 37° C., 18-20 hours, read-out: MIC
[15] = Table IV, Prot. mir. Hbg., 37° C., 18-20 hours, read-out: MIC
[16] = Table IV, Eb. cloaceae, 37° C., 18-20 hours, read-out: MIC
[17] = SG511, Table IV, S. aureus SG 511, 37° C., 18-20 hours, read-out: MIC

Structure (SMILES)	MIC [1, 11] [µg/mL]	MIC [2] [µg/mL]	MIC [3] [µg/mL]	MIC [4, 12] [µg/mL]	MIC [5, 13] [µg/mL]	MIC [6, 14] [µg/mL]	MIC [7, 15] [µg/mL]	MIC (Proteus rettgeri) [µg/mL]	MIC [8, 16] [µg/mL]	MIC [9, 17] [µg/mL]	ED50 (E. coli ATCC 11775) [mg/kg]	ED50 [10] [mg/kg]	further results
Cn1nnnc1SCC1=C(C(=O)O)N2C(=O)[C@@H](NC(=O)[C@H](NC(=O)Nc3cnc(NCc4cccs4)nc3O)c3ccc(O)cc3)[C@H]2SC1 [N]	0.25 (≈ 0.344 µM)	8 (≈ 11 µM)	4 (≈ 5.51 µM)	0.25 (≈ 0.344 µM)	0.25 (≈ 0.344 µM)	0.25 (≈ 0.344 µM)	0.12 (≈ 0.165 µM)	0.5 (≈ 0.689 µM)	0.25 (≈ 0.344 µM)	0.5 (≈ 0.689 µM)	0.6	–	–
Cn1nnnc1SCC1=C(C(=O)O)N2C(=O)[C@@H](NC(=O)[C@H](NC(=O)Nc3cnc(NCc4ccco4)nc3O)c3ccc(O)cc3)[C@H]2SC1 [J]	0.25 (≈ 0.352 µM)	8 (≈ 11.3 µM)	4 (≈ 5.64 µM)	0.25 (≈ 0.352 µM)	0.5 (≈ 0.704 µM)	0.5 (≈ 0.704 µM)	0.12 (≈ 0.169 µM)	0.5 (≈ 0.704 µM)	0.5 (≈ 0.704 µM)	0.5 (≈ 0.704 µM)	0.3	6.3	–
CO/N=C(\C(=O)N[C@@H]1C(=O)N2C(C(=O)O)=C(COC(N)=O)CS[C@H]12)c1ccco1 [Cefuroxim, reference compound]	8 (≈ 18.9 µM)	–	–	8 (≈ 18.9 µM)	2 (≈ 4.71 µM)	–	0.5 (≈ 1.18 µM)	2 (≈ 4.71 µM)	32 (≈ 75.4 µM)	1 (≈ 2.36 µM)	37	> 200	MIC [6]; 272: 4 µg/mL (≈ 9.43 µM); animals died ([10]; Pseudomonas infection, s.c., at 200 mg/kg): all animals died
Cc1ncc(CNc2ncc(NC(=O)N[C@@H](C(=O)N[C@@H]3C(=O)N4C(C(=O)O)=C(CSc5nnnn5C)CS[C@H]34)c3ccc(O)cc3)c(O)n2)cn1 [P]	0.12 (≈ 0.163 µM)	4 (≈ 5.44 µM)	4 (≈ 5.44 µM)	0.25 (≈ 0.34 µM)	0.25 (≈ 0.34 µM)	0.5 (≈ 0.68 µM)	0.06 (≈ 0.0815 µM)	0.25 (≈ 0.34 µM)	0.5 (≈ 0.68 µM)	0.25 (≈ 0.34 µM)	–	–	–
Cn1nnnc1SCC1=C(C(=O)O)N2C(=O)[C@@H](NC(=O)[C@H](NC(=O)Nc3cnc(NCc4cccnc4)nc3O)c3ccc(O)cc3)[C@H]2SC1 [L]	–	–	–	0.25 (≈ 0.347 µM)	–	0.25 (≈ 0.347 µM)	–	0.5 (≈ 0.694 µM)	0.25 (≈ 0.347 µM)	0.5 (≈ 0.694 µM)	0.2	4.6	MIC [5]: 0.25 µg/mL (≈ 0.347 µM)
Cn1nnnc1SCC1=C(C(=O)O)N2C(=O)[C@@H](NC(=O)[C@H](NC(=O)Nc3cnc(Nc4ccc([S+](C)[O-])nc4)nc3O)c3ccc(O)cc3)[C@H]2SC1 (some centres unmarked) [O]	0.25 (≈ 0.325 µM)	4 (≈ 5.2 µM)	4 (≈ 5.2 µM)	0.5 (≈ 0.65 µM)	0.25 (≈ 0.325 µM)	0.25 (≈ 0.325 µM)	0.12 (≈ 0.156 µM)	0.5 (≈ 0.65 µM)	0.5 (≈ 0.65 µM)	0.25 (≈ 0.325 µM)	–	–	–
CC(=O)OCC1=C(C(=O)O)N2C(=O)[C@@H](NC(=O)[C@H](NC(=O)Nc3cnc(NCc4ccco4)nc3O)c3ccc(O)cc3)[C@H]2SC1 [K]	0.5 (≈ 0.765 µM)	–	8 (≈ 12.2 µM)	–	1 (≈ 1.53 µM)	1 (≈ 1.53 µM)	0.25 (≈ 0.382 µM)	1 (≈ 1.53 µM)	–	–	–	–	MIC ([2]; Table IV, Pseud. aerug. Hbg., 37° C., 18-20 hours, read-out: MIC): 16 µg/mL (≈ 24.5 µM); MIC ([4]; ATCC13880): 2 µg/mL (≈ 3.06 µM); MIC [8]: 4 µg/mL (≈ 6.12 µM); MIC ([9]; SG511): 1 µg/mL (≈ 1.53 µM)
Cc1nnc(SCC2=C(C(=O)O)N3C(=O)[C@@H](NC(=O)Cn4cnnn4)[C@H]3SC2)s1 [Cephazolin, reference compound]	–	–	–	–	1 (≈ 2.2 µM)	–	–	–	–	0.06 (≈ 0.132 µM)	–	–	MIC [1]: 4 µg/mL (≈ 8.8 µM); MIC [6]; 272: 2 µg/mL (≈ 4.4 µM); MIC [7]: 4 µg/mL (≈ 8.8 µM)
